SMILES strings stand for the structures. Counter-ions that a name gives are not always drawn.

The first assay deals with T1, MerTK (Homo sapiens, UniProt Q12866).
T1 construct: endogenous in cells; host or cells: Jurkat cells
T1 sequence (Q12866 21-999): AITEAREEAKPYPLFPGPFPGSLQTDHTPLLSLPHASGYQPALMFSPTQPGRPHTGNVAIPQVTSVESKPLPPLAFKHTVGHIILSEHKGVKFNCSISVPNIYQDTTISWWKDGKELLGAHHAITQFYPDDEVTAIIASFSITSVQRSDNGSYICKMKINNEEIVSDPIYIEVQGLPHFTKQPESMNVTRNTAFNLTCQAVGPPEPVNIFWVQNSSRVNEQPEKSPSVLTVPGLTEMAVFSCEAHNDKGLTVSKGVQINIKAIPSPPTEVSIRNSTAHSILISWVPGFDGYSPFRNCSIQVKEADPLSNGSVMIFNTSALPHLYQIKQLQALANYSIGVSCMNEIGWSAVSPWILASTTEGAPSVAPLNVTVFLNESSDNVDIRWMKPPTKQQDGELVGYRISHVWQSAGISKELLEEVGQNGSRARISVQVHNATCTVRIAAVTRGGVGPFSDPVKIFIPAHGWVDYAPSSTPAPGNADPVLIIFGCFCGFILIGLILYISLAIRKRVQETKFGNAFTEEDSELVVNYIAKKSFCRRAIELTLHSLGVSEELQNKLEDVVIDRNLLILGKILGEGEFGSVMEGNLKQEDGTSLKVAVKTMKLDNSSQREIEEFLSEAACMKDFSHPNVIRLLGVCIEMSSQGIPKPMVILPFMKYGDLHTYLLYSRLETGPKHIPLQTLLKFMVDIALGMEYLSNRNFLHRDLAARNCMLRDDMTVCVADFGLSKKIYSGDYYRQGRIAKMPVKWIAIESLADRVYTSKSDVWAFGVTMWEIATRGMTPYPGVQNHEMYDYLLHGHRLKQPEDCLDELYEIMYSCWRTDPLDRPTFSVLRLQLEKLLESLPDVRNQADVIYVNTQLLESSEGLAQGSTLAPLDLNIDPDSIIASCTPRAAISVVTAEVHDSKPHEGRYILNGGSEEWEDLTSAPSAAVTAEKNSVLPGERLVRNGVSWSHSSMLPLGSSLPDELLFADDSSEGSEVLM
In words: MerTk degradation in Jurkat cells (Western blot). To be noted: 0.001-1 μM, 4 hour-incubation at 37° C. In kind it is cell-based. In outline: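 Jurkat cells treated 4 h at 37 °C with compound at 0.001-1 μM final. RIPA lysates quantified by BCA, then MerTK probed by Western blot against actin loading control with IR-dye secondaries and Odyssey imaging.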
On to `Cn1c(=O)n(C2CCC(=O)NC2=O)c2ccc(CCCOCCN3CCCC(N4CCN(Cc5ccc(-c6cn([C@H]7CC[C@H](O)CC7)c7nc(NCCC(F)(F)F)ncc67)cc5)CC4)C3)cc21.O=CO` (stereo partly drawn) [I-95, 3-(3-methyl-2-oxo-5-[3-[2-(3-[4-[(4-[7-[trans-4-hydroxycyclohexyl]-2-[(3,3,3-trifluoropropyl)amino]-7H-pyrrolo[2,3-d]pyrimidin-5-yl]phenyl)methyl]piperazin-1-yl]piperidin-1-yl)ethoxy]propyl]-2,3-dihydro-1H-1,3-benzodiazol-1-y1)piperidine-2,6-dione; formic acid], for which the “Jurkat Max % MerTK Degradation” value was “A (maximum MerTK degradation greater than 50%)”.

The same assay, now with this note: Jurkat, 4 h, 0.001-1 μM, 4 hour-incubation at 37° C., read-out: Jurkat Max % MerTK Degradation.
As to `Cn1c(=O)n([C@H]2CCC(=O)NC2=O)c2ccc(CCCOCCN3CCC(N4CCN(Cc5ccc(-c6cn([C@H]7CC[C@H](O)CC7)c7nc(NCCC(F)(F)F)ncc67)cc5)CC4)CC3)cc21` [I-94, 3-(3-methyl-2-oxo-5-[3-[2-(4-[4-[(4-[7-[trans-4-hydroxycyclohexyl]-2-[(3,3,3-trifluoropropyl)amino]-7H-pyrrolo[2,3-d]pyrimidin-5-yl]phenyl)methyl]piperazin-1-yl]piperidin-1-yl)ethoxy]propyl]-2,3-dihydro-1H-1,3-benzodiazol-1-y1)piperidine-2,6-dione; formic acid], the Dmax is above 50%. On the same count and under the same terms, to `CCCCNc1ncc2c(C3=CCN(CCOCCOCCOCCOCCCc4ccc5c(c4)n(C)c(=O)n5[C@H]4CCC(=O)NC4=O)CC3)cn([C@H]3CC[C@H](O)CC3)c2n1` [I-96, 3-[5-(1-[4-[2-(butylamino)-7-[trans-4-hydroxycyclohexyl]-7H-pyrrolo[2,3-d]pyrimidin-5-y1]-1,2,3,6-tetrahydropyridin-1-y1]-3,6,9,12-tetraoxapentadecan-15-yl)-3-methyl-2-oxo-2,3-dihydro-1H-1,3-benzodiazol-1-yl]piperidine-2,6-dione; formic acid] belongs above 50%; to `CCCCNc1ncc2c(C3CCN(CCOCCOCCOCCOCCCc4ccc5c(c4)n(C)c(=O)n5[C@H]4CCC(=O)NC4=O)CC3)cn([C@H]3CC[C@H](O)CC3)c2n1` [I-97, 3-[5-(1-[4-[2-(butylamino)-7-[trans-4-hydroxycyclohexyl]-7H-pyrrolo[2,3-d]pyrimidin-5-y1]piperidin-1-y1]-3,6,9,12-tetraoxapentadecan-15-y1)-3-methyl-2-oxo-2,3-dihydro-1H-1,3-benzodiazol-1-y1]piperidine-2,6-dione; bis(formic acid)], above 50%. Take `Cn1c(=O)n(C2CCC(=O)NC2=O)c2ccc(CN3CCC(OCCN4CCN(Cc5ccc(-c6cn([C@H]7CC[C@H](O)CC7)c7nc(NCCC(F)(F)F)ncc67)cc5)CC4)C3)cc21` (stereo partly drawn) [I-98, 3-(3-methyl-2-oxo-5-[[3-(2-[4-[(4-[7-[trans-4-hydroxycyclohexy1]-2-[(3,3,3-trifluoropropyl)amino]-7H-pyrrolo[2,3-d]pyrimidin-5-y1]phenyl)methyl]piperazin-1-yl]ethoxy)pyrrolidin-1-y1]methyl]-2,3-dihydro-1H-1,3-benzodiazol-1-yl)piperidine-2,6-dione; formic acid]: the Dmax is above 50%. In the case of `O=C1CC[C@H](n2c3ccc(NCCOCCOCCNCc4ccc(-c5cn([C@H]6CC[C@H](O)CC6)c6nc(NCCC(F)(F)F)ncc56)cc4)cc3c3cccnc32)C(=O)N1` [I-99, 3-[6-[11-(4-[7-[trans-4-hydroxycyclohexyl]-2-[(3,3,3-trifluoropropyl)amino]-7H-pyrrolo[2,3-d]pyrimidin-5-yl]phenyl)-4,7-dioxa-1,10-diazaundecan-1-y1]-9H-pyrido[2,3-b]indol-9-yl]piperidine-2,6-dione; trihydrochloride], the Dmax was above 50%.

On to `Cn1c(=O)n([C@H]2CCC(=O)NC2=O)c2ccc(CCCOCCCN3CCN(Cc4ccc(-c5cn([C@H]6CC[C@H](O)CC6)c6nc(NCC(F)F)ncc56)cc4)CC3)cc21` [I-100, 3-[5-[3-(3-[4-[(4-[2-[(2,2-difluoroethyl)amino]-7-[trans-4-hydroxycyclohexyl]-7H-pyrrolo[2,3-d]pyrimidin-5-yl]phenyl)methyl]piperazin-1-yl]propoxy)propyl]-3-methyl-2-oxo-2,3-dihydro-1H-1,3-benzodiazol-1-yl]piperidine-2,6-dione; formic acid], for which the Dmax is above 50%. Same read-out and setting: to `C[C@H](c1ccc(-c2cn([C@H]3CC[C@H](O)CC3)c3nc(NCCC(F)(F)F)ncc23)cc1)N1CCN(CCCOCCCc2ccc3c(c2)n(C)c(=O)n3C2CCC(=O)NC2=O)CC1` (stereo partly drawn) [I-101] belongs above 50%; to `C[C@@H](c1ccc(-c2cn([C@H]3CC[C@H](O)CC3)c3nc(NCCC(F)(F)F)ncc23)cc1)N1CCN(CCCOCCCc2ccc3c(c2)n(C)c(=O)n3C2CCC(=O)NC2=O)CC1` (stereo partly drawn) [I-102, 3-[3-methyl-2-oxo-5-[3-(3-[4-[(1S)-1-(4-[7-[trans-4-hydroxycyclohexy1]-2-[(3,3,3-trifluoropropyl)amino]-7H-pyrrolo[2,3-d]pyrimidin-5-yl]phenyl)ethyl]piperazin-1-yl]propoxy)propyl]-2,3-dihydro-1H-1,3-benzodiazol-1-yl]piperidine-2,6-dione; formic acid], above 50%. For `CCCCNc1ncc2c(-c3ccc([C@@H](C)N4CCN(CCCOCCCc5ccc6c(c5)n(C)c(=O)n6C5CCC(=O)NC5=O)CC4)cc3)cn([C@H]3CC[C@H](O)CC3)c2n1` (stereo partly drawn) [I-103, 3-[5-[3-(3-[4-[(1R)-1-[4-[2-(butylamino)-7-[trans-4-hydroxycyclohexyl]-7H-pyrrolo[2,3-d]pyrimidin-5-yl]phenyl]ethyl]piperazin-1-yl]propoxy)propyl]-3-methyl-2-oxo-2,3-dihydro-1H-1,3-benzodiazol-1-yl]piperidine-2,6-dione], the Dmax was above 50%. For `CCCCNc1ncc2c(-c3ccc([C@H](C)N4CCN(CCCOCCCc5ccc6c(c5)n(C)c(=O)n6C5CCC(=O)NC5=O)CC4)cc3)cn([C@H]3CC[C@H](O)CC3)c2n1` (stereo partly drawn) [I-104, 3-[5-[3-(3-[4-[(1S)-1-[4-[2-(butylamino)-7-[trans-4-hydroxycyclohexyl]-7H-pyrrolo[2,3-d]pyrimidin-5-yl]phenyl]ethyl]piperazin-1-yl]propoxy)propyl]-3-methyl-2-oxo-2,3-dihydro-1H-1,3-benzodiazol-1-y1]piperidine-2,6-dione], the Dmax is above 50%.

With `CN1C(=O)CC[C@H](n2c(=O)n(C)c3cc(CCCOCCOCCN4CCN(Cc5ccc(-c6cn([C@H]7CC[C@H](O)CC7)c7nc(NCCC(F)(F)F)ncc67)cc5)CC4)ccc32)C1=O` [I-105, 1-methyl-3-(3-methyl-2-oxo-5-[3-[2-(2-[4-[(4-[7-[trans-4-hydroxycyclohexyl]-2-[(3,3,3-trifluoropropyl)amino]-7H-pyrrolo[2,3-d]pyrimidin-5-yl]phenyl)methyl]piperazin-1-yl]ethoxy)ethoxy]propyl]-2,3-dihydro-1H-1,3-benzodiazol-1-yl)piperidine-2,6-dione], the Dmax was in the range of 20 to 50%. On the same count and under the same terms, the figure for `C[C@H]1CN(Cc2ccc(-c3cn([C@H]4CC[C@H](O)CC4)c4nc(NCCC(F)(F)F)ncc34)cc2)CCN1CCCOCCCc1ccc2c(c1)n(C)c(=O)n2C1CCC(=O)NC1=O` (stereo partly drawn) [I-106, 3-[3-methyl-5-(3-[3-[(2S)-2-methyl-4-[(4-[7-[trans-4-hydroxycyclohexy1]-2-[(3,3,3-trifluoropropyl)amino]-7H-pyrrolo[2,3-d]pyrimidin-5-yl]phenyl)methyl]piperazin-1-yl]propoxy]propyl)-2-oxo-2,3-dihydro-1H-1,3-benzodiazol-1-yl]piperidine-2,6-dione; formic acid] is above 50%; for `Cn1c(=O)n([C@H]2CCC(=O)NC2=O)c2ccc(CCCOCCCN3CCN(Cc4ccc(-c5cn([C@H]6CC[C@H](O)CC6)c6nc(NC7CC7)ncc56)cc4)CC3)cc21` [I-108, 3-[5-(3-[3-[4-([4-[2-(cyclopropylamino)-7-[trans-4-hydroxycyclohexyl]-7H-pyrrolo[2,3-d]pyrimidin-5-yl]phenyl]methyl)piperazin-1-yl]propoxy]propyl)-3-methyl-2-oxo-2,3-dihydro-1H-1,3-benzodiazol-1-yl]piperidine-2,6-dione; bis(formic acid)] it is above 50%.

Take `Cn1c(=O)n([C@H]2CCC(=O)NC2=O)c2ccc(CN3CC(OCCN4CCN(Cc5ccc(-c6cn([C@H]7CC[C@H](O)CC7)c7nc(NCCC(F)(F)F)ncc67)cc5)CC4)C3)cc21` [I-109, 3-(3-methyl-2-oxo-5-[[3-(2-[4-[(4-[7-[trans-4-hydroxycyclohexyl]-2-[(3,3,3-trifluoropropyl)amino]-7H-pyrrolo[2,3-d]pyrimidin-5-y1]phenyl)methyl]piperazin-1-yl]ethoxy)azetidin-1-yl]methyl]-2,3-dihydro-1H-1,3-benzodiazol-1-y1)piperidine-2,6-dione]: the Dmax was below 20%.

These data come from patent US20260042762A1 (Kymera Therapeutics, Inc., priority 2018, published 2026).
